Data: patent US8084449B2, “Dual pharmacophores—PDE4-muscarinic antagonistics” (Glaxo Group Limited, priority 2008, dated 2011)

Key:
[1] = test system: human M1, M2 and M3 ACh receptors stably expressed in CHO cells; assay: Calcium mobilization (FLIPR) IC50 determination for antagonists: inhibition of ACh induced muscarinic receptor activation; type: cell-based; details: EC80 concentration of ACh, active if IC50 of between 33 uM and 10 nM or less, receptor subtype not specified for the statement
Description: Studies to determine the effectiveness of antagonists to cause blockade of functional intracellular calcium fluxes following agonist (ACh) treatment of cloned human receptors. This system is used for characterizations of antagonist-receptor interactions using four distinct variations of the FLIPR methodology: (a) potency: IC50 determination, (b) potency: pA2 determination, (c) reversibility of antagonist-receptor interaction, or (d) confirmation of no functional agonist activity.
Cell Source The human M1-M3 receptors are cloned and stably expressed in Chinese Hamster Ovary (CHO) cells. The M2 receptors are co-expressed with the chimeric G protein, Gqi5.
Method of Culture: CHO-M1, CHO-Gqi5-M2 and CHO-M3 cells are cultured to confluence at 37° C. in a humidified incubator with 5% CO2/95% air. […] The emitted fluorescence from all 96 wells is measured simultaneously using a cooled CCD camera. […]
Cell plating: A microtiter plate based calcium mobilization FLIPR (Fluorometric Imaging Plate Reader, Molecular Devices, Sunnyvale Calif., [Schroeder K S, Neagle, B D. FLIPR: a new instrument for accurate, high throughput optical screening. J. Biomol. Screen. 1996; 1:75.]) assay is used for the functional characterization of compounds against M1, M2 (w/Gqi5) and M3 ACh receptors stably expressed in CHO cells. […]

SMILES	IC50 (compound pretreatment concentration which inhibits 50% of the ACh induced response), activity rating [1]	melting point
CCc1nc2c(cnn2CC)c(NC2CCOCC2)c1CNC(=O)c1cccc(C(=O)NCc2ccc(OC)c(-c3cccc(CN4CCN[C@@H](C)C4)c3)c2)n1 [Example 157, N-{[1,6-Diethyl-4-(tetrahydro-2H-pyran-4-ylamino)-1H-pyrazolo[3,4-b]pyridin-5-yl]methyl}-N′-[(6-(methyloxy)-3′-{[(3S)-3-methyl-1-piperazinyl]methyl}-3-biphenylyl)methyl]-2,6-pyridinedicarboxamide]	most active	
NC(=O)c1ccc(Cl)c(Br)c1		146 to 147 °C
